# According to patent publication US20110293643A1, “COMPOUNDS AND METHODS FOR INHIBITING MMP2 AND MMP9” (priority 2009, published 2011):
# Legend:
# T cells [1] = test: cell viability after 1,10-phenanthroline treatment; type: cell-based, mouse; settings: high phenanthroline concentrations
# CD4+ T cells = test: anti-CD3 induced T cell proliferation (3H thymidine incorporation), CD4+ T cells; type: cell-based, mouse
# Description: (§1) The non-specific MMP inhibitor, 1,10-phenanthroline (Sigma, St. Louis, Mo.) was reconstituted to 1 M solution in dimethyl sulfoxide (DMSO) and diluted to 0.001-0.1 μM in complete RPMI (cRPMI), composed of RPMI, […] L-glutamine, 100 U penicillin streptomycin (Gibco, Carlsbad, Calif.), 10% FCS (Hyclone, Logan, Utah), and 5×10^−5 M 2-mercaptoethanol (Sigma, St. Louis, Mo.).
# (§2) CD4^+ or CD8^+ T cells were isolated from wild-type Balb/c or C57BL/6 mice (1×10^6/ml) and incubated with the indicated concentrations of MMPIs or vehicle control for 6 hours. The treated cells were then washed three times in RPMI and cultured (1×10^5/well) in a 96 well plate in 200 μl of cRPMI in the presence of anti-CD3 antibody (0.5-1 μg/ml, BD Biosciences, San Jose, Calif.) at 37° C. for 72 hours and harvested as previously reported (Sumpter et al., 2008). This generalized protocol was used to measure T cell proliferation of CD4^+ and CD8^+ T cells following the various isolation methods and treatment conditions indicated. In MMP deficient parallel studies, MMP2−/−, MMP9−/−, MMP2/9−/− mice and littermate controls were cultured in the presence of anti-CD3 antibody for 72 h. […] The cells were washed three times in RPMI and added at varying ratios (treated: untreated) in co-culture with untreated CD4^+25− T cells in the presence of γ-irradiated antigen presenting cells in 200 μl of cRPMI at 37° C. for 72 hours and harvested as previously reported (Sumpter et al., 2008).
# Wistar-Kyoto rat = settings: rat ischemia reperfusion injury, Iwata et al. 2008; cited from earlier work
# rat = rat lung transplantation; cited from earlier work
# NFATc1 = NFATc1 transcript expression by quantitative RT PCR in CD4+ T cells; type: cell-based, mouse; settings: 5-20 μM, anti-CD3, vs vehicle (FIG. 5C)
# Description: (§3) Purified CD4^+ T cells were incubated with the indicated concentrations of SB3-CT for 6 hours and then washed three times with RPMI 1640. Drug or vehicle-treated T cells were cultured (1×10^6/ml) with anti-CD3 antibody (0.5 μg/ml) in cRPMI for 1-12 hours. Cells were collected and total RNA was isolated using an RNeasy RNA extraction kit (Qiagen, Inc., Valencia, Calif.) and mRNA expression levels were detected with PerfeCTa™ SYBR Green FastMix, Low ROX (Quanta Biosciences, Gaithersburg, Md.) on a Applied Biosystems 7500 according to the manufacturer's instructions. Each sample was normalized to murine β-actin. Primer sequences were designed and optimized using routine methodologies to specifically amplify each cytokine based on publicly available sequences.
# CD8+ T cells [2] = test: anti-CD3 induced intracellular calcium flux (Fluo-4 NW); type: cell-based, mouse; settings: 10 μM
# Description: Calcium flux was measured in CD4^+ and CD8^+ wild-type or MMP9 deficient or SB-3CT-treated (10 μM) T cells using the Fluo-4 NW Calcium Assay kit (Molecular Probes, Carlsbad, Calif.) in accord with the manufacturer's protocol. Cells were then stimulated with anti-CD3 antibody (10 μg/ml) and read in real time on a Molecular Devices FlexStation I (Sunnyvale, Calif.) for 300 seconds.
# MMP9 [3] = target: T1, MMP9 (Mus musculus, UniProt P41245); test: MMP9 protein expression by gelatin zymography in CD8+ T cells; type: cell-based; settings: 10 μM
# T1 construct: Cell lysates and conditioned media supernatant were collected, concentrated to 4× and centrifuged; endogenous in cells; host or cells: primary splenic CD8+ T cells from wild-type C57BL/6 mice
# Description: Cell lysates and conditioned media supernatant were collected, concentrated to 4× and centrifuged to remove any cell debris, and stored at −80° C. prior to assay. Samples were then subjected to zymography as reported previously (Yoshida et al., 2007).
# T cells [4] = test: cell viability by trypan blue exclusion and annexin V staining after SB-3CT; type: cell-based, mouse; settings: following treatment with SB-3CT
# From the text: The data described in the Examples herein thus far raise the possibility that SB-3CT-induced cytotoxicity or anergy could account for the observed effects on proliferation.
# IL-2 [5] = test: IL-2 transcript expression by quantitative RT PCR; type: cell-based, mouse; settings: 10 μM, various time points, anti-CD3, CD4+ T cells (FIG. 6C, D)
# Description: as §3
# [6] = test system: OT-I transgenic CD8+ T cells; test: antigen-specific proliferation of OT-I transgenic CD8+ T cells with OVA-pulsed APCs; type: cell-based, mouse; settings: 5-20 μM, SIINFEKL-pulsed APCs, 72 hours (FIG. 8A)
# CD25 = CD25 transcript expression by quantitative RT PCR in CD4+ T cells; type: cell-based, mouse; settings: 5-20 μM, anti-CD3, vs vehicle (FIG. 5D)
# Description: as §3
# CD8+ T cells [7] = test: anti-CD3 induced T cell proliferation (3H thymidine incorporation), CD8+ T cells; type: cell-based, mouse
# Description: as §1
# CD4^+ or CD8^+ T cells were isolated from wild-type Balb/c or C57BL/6 mice (1×10^6/ml) and incubated with the indicated concentrations of MMPIs or vehicle control for 6 hours. The treated cells were then washed three times in RPMI and cultured (1×10^5/well) in a 96 well plate in 200 μl of cRPMI in the presence of anti-CD3 antibody (0.5-1 μg/ml, BD Biosciences, San Jose, Calif.) at 37° C. for 72 hours and harvested as previously reported (Sumpter et al., 2008). This generalized protocol was used to measure T cell proliferation of CD4^+ and CD8^+ T cells following the various isolation methods and treatment conditions indicated. In MMP deficient parallel studies, MMP2−/−, MMP9−/−, MMP2/9−/− mice and littermate controls were cultured in the presence of anti-CD3 antibody for 72 h. […]
# CD4+25+ T cells (Tregs) = test: T cell suppressor assay with SB-3CT-treated CD4+25+ T cells (Tregs); type: cell-based, mouse; settings: 10 μM treated CD4+25+ T cells, varying ratios (FIG. 7E)
# Description: as §2
# CC10-OVA mice = test: antigen-specific CD8+ T cell mediated lung injury, adoptive transfer of treated OT-I cells into CC10-OVA mice; type: in vivo, mouse
# Description: Lymph node and spleen were isolated from Thy1.1^+ OT-I transgenic mice and splenic CD8^+ T cells were isolated as stated above. […] 5×10^7 γ-irradiated wild-type splenocytes were cultured in 30 ml of 10% DMEM supplemented with 0.7 μg/ml of OVA peptide ([…]) for 5 min, followed by the addition of OT-1 Thy1.1^+ CD8^+ T cells (5×10^6), anti-CD28 antibody (2 μg/ml), IL-2 (132.02 U/ml) and IL-12 (10 ng/ml). On day 3, the cells were split and supplemented with more IL-2 (25 U/ml) in a final volume of 30 ml. On day 5, cells were harvested and prepared for adoptive transfer into CC10-OVA mice. Cells were resuspended in PBS, and 7.5×10^5 cells were intratracheally instilled into the lungs of CC10-OVA mice.
# The lung was finely minced on ice, followed by a 60-90 minute digestion at 37° C. with collagenase/dispase (0.2 mg/ml of each) in RPMI medium with 5% fetal calf serum (FCS), in the presence of 25 μg/ml DNase. Cells were passed through a 70 μm cell strainer, washed, and lung lymphocytes were isolated by density centrifugation. Cells were resuspended in FACS buffer (10% BSA in PBS) and analyzed immediately on a FACScan flow cytometer (Beckton Dickinson). FCS Express (DeNovo Software, Los Angeles, Calif.) was used for further analysis.
# BAL was collected from the lungs of wild-types and CC10 mice following adoptive transfer of vehicle and SB-3CT-treated OT-1 Tg T cells, by washing the mouse lung with 1.0 ml of sterile 1×PBS. Collected fluid was then centrifuged for 10 minutes at 2000 rpm. Cell pellets were resuspended in 200 μl of sterile 1×PBS. Cells were then stained with anti-GR1 antibody and analyzed immediately on a FACScan flow cytometer (Beckton Dickinson). FCS Express (DeNovo Software, Los Angeles, Calif.) was used for further analysis.
# Lungs were perfused, inflated and fixed with neutral buffered formalin. The sections were then embedded in paraffin, sectioned, and stained with hematoxylin and eosin. Images were acquired at 20× using an Olympus microscope and DP12 digital camera (Olympus, Center Valley, Pa.).
# Foxp3 = Foxp3 transcript expression by quantitative RT PCR in CD4+ T cells; type: cell-based, mouse; settings: 10 μM, anti-CD3, CD4+ T cells (FIG. 7B)
# Description: as §3
# IL-2 [8] = test: IL-2 protein expression by cytometric bead array; type: cell-based, mouse; settings: 10 μM, various time points, anti-CD3, CD4+ T cells (FIG. 6C, D)
# Description: Purified MMP9 deficient or SB-3CT-treated (10 μM) CD4^+ T cells were incubated for 6 hours and then washed three times with RPMI 1640. MMP9 deficient or SB-3CT-treated T cells were cultured (1×10^6/ml) with anti-CD3 antibody (0.5 μg/ml) in cRPMI for 1-12 hours. Supernatants were collected and cytokine protein levels were measured using the Mouse Inflammatory Cytokine Bead Array Kit (BD Biosciences, San Jose, Calif.) according to the manufacturer's instructions.
# CD4+25− T cells = test: T cell suppressor assay with SB-3CT-treated CD4+25− T cells; type: cell-based, mouse
# Description: as §2
# MMP9 [9] = target: MMP9 (Homo sapiens, UniProt P14780); settings: Brown et al., 2000, Toth et al., Forbes et al., 2009; cited from earlier work
# Chain of MMP9 (Homo sapiens, UniProt P14780) (P14780 94-707): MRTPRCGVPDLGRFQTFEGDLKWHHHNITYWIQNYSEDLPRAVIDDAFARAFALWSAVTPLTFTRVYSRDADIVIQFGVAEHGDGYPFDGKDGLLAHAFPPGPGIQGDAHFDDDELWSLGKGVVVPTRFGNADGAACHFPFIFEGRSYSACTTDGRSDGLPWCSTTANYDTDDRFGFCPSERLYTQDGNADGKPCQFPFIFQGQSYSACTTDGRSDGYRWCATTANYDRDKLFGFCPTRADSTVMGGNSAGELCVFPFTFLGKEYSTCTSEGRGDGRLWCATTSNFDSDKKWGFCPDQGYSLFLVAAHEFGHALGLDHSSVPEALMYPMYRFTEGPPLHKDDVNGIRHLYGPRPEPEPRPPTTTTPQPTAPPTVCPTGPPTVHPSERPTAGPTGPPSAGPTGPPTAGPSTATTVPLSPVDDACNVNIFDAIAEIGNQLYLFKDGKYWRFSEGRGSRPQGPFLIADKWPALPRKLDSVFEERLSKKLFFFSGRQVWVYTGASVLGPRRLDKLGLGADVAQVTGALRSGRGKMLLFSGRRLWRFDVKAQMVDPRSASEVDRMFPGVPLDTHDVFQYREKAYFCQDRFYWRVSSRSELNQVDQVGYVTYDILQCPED
# T1 sequence (P41245 108-730): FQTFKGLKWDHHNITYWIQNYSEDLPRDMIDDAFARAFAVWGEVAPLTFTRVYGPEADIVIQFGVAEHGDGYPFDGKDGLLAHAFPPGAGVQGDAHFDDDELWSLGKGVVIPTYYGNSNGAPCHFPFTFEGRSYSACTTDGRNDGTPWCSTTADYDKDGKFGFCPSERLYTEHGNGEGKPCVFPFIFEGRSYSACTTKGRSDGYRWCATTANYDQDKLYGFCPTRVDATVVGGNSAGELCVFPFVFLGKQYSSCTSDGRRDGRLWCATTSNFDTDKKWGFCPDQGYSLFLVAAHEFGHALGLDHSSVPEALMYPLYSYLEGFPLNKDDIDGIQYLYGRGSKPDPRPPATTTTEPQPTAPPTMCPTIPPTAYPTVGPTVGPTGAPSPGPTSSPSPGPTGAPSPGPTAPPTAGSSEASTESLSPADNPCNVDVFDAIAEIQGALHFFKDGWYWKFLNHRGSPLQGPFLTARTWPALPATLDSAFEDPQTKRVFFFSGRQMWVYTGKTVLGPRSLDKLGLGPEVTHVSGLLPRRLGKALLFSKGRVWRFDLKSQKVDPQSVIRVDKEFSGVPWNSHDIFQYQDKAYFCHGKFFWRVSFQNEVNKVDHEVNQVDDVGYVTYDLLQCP
compound,measurement,setting,value
"c1cnc2c(c1)ccc1cccnc12 [1,10-phenanthroline]",cell viability after treatment,T cells [1],cells were viable after treatment
same,T cell proliferation,"CD4+ T cells; 0.001 μM, 6 hours, then soluble anti-CD3 antibody 72 hours (FIG. 2A)",proliferative response similar to untreated anti-CD3 antibody stimulated cells
same,T cell proliferation,"CD4+ T cells; higher doses (up to 0.1 μM), 6 hours, then anti-CD3 72 hours, p<0.001 (FIG. 2A)",significantly abrogated the proliferative response
NC(=O)C1=C(O)C[C@@H]2C[C@@H]3Cc4cccc(O)c4C(=O)C3=C(O)[C@]2(O)C1=O [COL-3],antigenic collagen (V) in bronchoalveolar lavage,Wistar-Kyoto rat,lower levels
same,inflammation factors,Wistar-Kyoto rat,reduced inflammation factors
same,intragraft B cell hyperplasia,rat,induce intragraft B cell hyperplasia
same,T cell proliferation,"CD4+ T cells; 1 μM, 6 hours, then anti-CD3 72 hours (FIG. 2B)",proliferative response similar to the untreated control
same,T cell proliferation,"CD4+ T cells; higher doses (up to 100 μM), p<0.001 (FIG. 2B)",dose-dependent decrease in T cell proliferation
O=S(=O)(CC1CS1)c1ccc(Oc2ccccc2)cc1 (stereo not drawn) [SB-3CT],NFATc1 transcript expression,NFATc1,abrogated NFATc1 and CD25 transcript expression in a dose-dependent manner
same,calcium influx in calcium containing media,"CD8+ T cells [2]; calcium containing media, anti-CD3 (FIG. 4D)",dramatic influx of exogenous calcium
same,intracellular calcium flux (release from the ER),"CD8+ T cells [2]; calcium-free media, anti-CD3 10 μg/ml (FIG. 4C)",increased intracellular calcium flux
same,MMP9 protein expression,MMP9 [3],decreased
same,cell viability,T cells [4],greater than 90%
same,IL-2 transcript expression,IL-2 [5],increased over time
same,antigen-specific proliferation,[6],completely abrogated the proliferative response
same,CD25 transcript expression,CD25,abrogated NFATc1 and CD25 transcript expression in a dose-dependent manner
same,T cell proliferation,"CD8+ T cells [7]; 5-25 μM, anti-CD3 72 h, vs vehicle-treated cells (FIG. 2D)",dose-dependent decrease in proliferation
same,T cell proliferation with exogenous IL-2,"CD8+ T cells [7]; anti-CD3 plus exogenous murine IL-2, 72 h (FIG. 2F)",partial recovery of the proliferative response
same,T cell proliferation,"CD4+ T cells; 5-25 μM, anti-CD3 72 h, vs vehicle-treated cells (FIG. 2C)",dose-dependent decrease in proliferation
same,T cell proliferation with exogenous IL-2,"CD4+ T cells; anti-CD3 plus exogenous murine IL-2, 72 h (FIG. 2E)",partial recovery of the proliferative response
same,suppressive function of treated Tregs,CD4+25+ T cells (Tregs),retained their suppressive function
same,"lung histology, mononuclear cellular infiltration",CC10-OVA mice; H&E lung sections after adoptive transfer of treated OT-1 cells,mononuclear cellular infiltration was minimal
same,quantity of total BAL cells,"CC10-OVA mice; seven days after adoptive transfer of 10 μM treated OT-I cells, vs vehicle (FIG. 8B)",no differences
same,quantity of neutrophils (Gr-1+) in BAL,"CC10-OVA mice; seven days after adoptive transfer, vs vehicle, p<0.01 (FIG. 8C)",decreased significantly
same,CD8+ Thy1.1+ (donor) cells in lung parenchyma,"CC10-OVA mice; vs vehicle, p<0.01 (FIG. 9A)",significantly fewer
same,CD25 expression on CD8+ Thy1.1+ T cells in lung,"CC10-OVA mice; vs vehicle, p<0.01 (FIG. 9B)",fewer of these cells expressed the activation marker CD25
same,foxp3 transcripts,Foxp3,increased
same,IL-2 protein expression,IL-2 [8],down regulated
same,inhibition at 10 µM,"CD4+25− T cells; Mus musculus, T-cell, 10 μM treated CD4+25− cells, each ratio with untreated CD4+25− T cells, 72 hours (FIG. 7D), read-out: inhibition of T cell proliferation in co-culture",50%
same,induction of regulatory T cell function,CD4+25− T cells; increasing ratio of SB-3CT-treated cells (FIG. 7D),does not induce regulatory T cell function
same,mode of MMP9 inhibition,MMP9 [9],tight-binding inhibition
TIMP-1: tissue-inhibitor of metalloproteinases,delayed type hypersensitivity responses to donor antigens and type V collagen,rat,differential effects
same,rejection pathology,rat,neither affected the onset of rejection pathology
